Entries after “also recorded” stand apart in the source; their conditions may differ.
What was measured:
[1] = acute toxicity test (LD50) in mice; settings: mouse, in vivo, Maus
Source text: (§1) Darüber hinaus konnte gefunden werden, daß Ebselen sehr sicher ist, wie dies durch die nachfolgenden und in der Tabelle 1 wiedergegebenen LD50-Werte bewiesen wird, wobei diese Werte das Ergebnis eines Toxizitätstests unter Verwendung von Mäusen und Ratten, denen diese Verbindungen oral oder intraperitoneal verabreicht wurden, darstellen. Selbst dann, wenn diese Verbindungen in hohen Dosen verabreicht werden, zeigen sie keine Nebeneffekte, die ernsthafte Probleme verursachen. Tabelle 1

[2] = acute toxicity test (LD50) in rats; settings: rat, in vivo, Ratte
Source text: as §1

[3] = tested on: Meerschweinchen, die ein Antigen induziertes Asthma besitzen; assay: antigen (ovalbumin)-induced asthma in conscious, spontaneously breathing guinea pigs; lung function (sGaw) by body plethysmograph; format: in vivo, Hartley Meerschweinchen; settings: for Bereiche der Unterdrückung der unmittelbaren asthmatischen Reaktionen: comparison of Ebselen group (5 mg/kg i.p.) with Dexamethason group (1 mg/kg i.p., 4 days)
Description: Die Wirksamkeiten von Ebselen wurden unter Verwendung von Meerschweinchen, die ein Antigen induziertes Asthma besitzen, durch Überprüfung der Lungenfunktionen unter Bewußtsein und spontaner Atmung getestet.
Jedes der weiblichen Hartley Meerschweinchen (SLC) (4 Wochen alt, Körpergewicht etwa 250 bis 300 g) wurden vorbehandelt mit Cyclophosmid (2 mg/kg). Nach zwei Tagen wurden intraperitoneal Ovalbumin (OA, 1 mg) und Aluminiumgel (1 g) injiziert. Drei Wochen später wurden wiederum OA (0,1 mg) und Aluminiumgel (1 g) intraperitoneal injiziert. Die so behandelten Meerschweinchen wurden als sensibilisierte Tiere benutzt. Zu diesem Testzeitpunkt waren die Meerschweinchen elf Wochen alt und hatten ein Körpergewicht von 450 bis 580 g.
Körper-Pressmograph, Drucktyp • Pulmotacograph (TP-601G, Nippon Kodensha) • Differentialmeßwandler (T-601, Nippon Kodensha) • Gasflußwiderstandsrohr (Lilly type, Nippon Kodensha) • Oszilloskop (DS-9121, Iwasaki Tsushinki) • Computer (Macintosh Centris 660 AV, Apple) • Software (zur Analyse der Atmung basierend auf LabView für Macintosh 3.01) • Zerstäuber (NE-U10, Tateishi Denki)
Dexamethason (1 mg/kg) wurde in 100 % DMSO (1 ml) gelöst. Diese Lösung wurde während vier aufeinander folgende Tage intraperitoneal injiziert. Die letzte intraperitoneale Injektion wurde 24 Stunden vor der Induzierung der Antigene durchgeführt.
Gruppe der mit Ebselen vorbehandelten Meerschweinchen Ebselen (5 mg/kg) wurde in 100 % DMSO (1 ml) gelöst. Diese Lösung wurde intraperitoneal 30 Minuten vor der Induzierung der Antigene injiziert.
100 % DMSO (1 ml) wurde intraperitoneal 30 Minuten vor der Induzierung der Antigene injiziert.
OA (40 mg) wurde in einer physiologischen Salzlösung (4 mg/ml) gelöst. Diese Lösung wurde 2 Minuten lang unter Verwendung eines Ultraschallzerstäubers inhaliert.
In Übereinstimmung mit dem Verfahren von Agrawal (Agrawal, K. P.; Specific Airway Conductance in Guinea Pigs: "Normal Values and Histamine Induced Fall", Respiratory Physiology 43:23, 1981) wurde jedes Meerschweinchen auf einem Körper-Pressmograph, Drucktyp, fixiert und die prozentuale Variation des spezifischen Luftweg-Leitwertes (sGaw) wurde gemessen. Der Luftfluß durch die Nase und die Änderung des Innendruckes der Box wurden aufgezeichnet. Die entsprechenden Wellenformen' wurden digital bei 1.024 Hz gesammelt und die Punkte vom Ende des Ausatmens bis zum Beginn des Einatmens wurden als rückläufige Linie aufgezeichnet. Unter Verwendung der Neigung (tan) der rückläufigen Linie wurde der sGaw erhalten. Der sGaw-Wert wurde vor der Induzierung der Antigene gemessen. Nachdem eine physiologische Salzlösung für zwei Minuten inhaliert wurde, wurde der sGaw nochmals gemessen, um sicherzustellen, daß sich keine Daten geändert hatten. […]

Lipoxygenase = settings: Peter Kuhl et al, Prostaglandins, 31 (1986), 1029-1048; cited from earlier work

Row | Compound | LD50 ([1]; ip) [mg/kg] | LD50 ([1]; po) [mg/kg] | LD50 ([2]; ip) [mg/kg] | LD50 ([2]; po) [mg/kg] | Unterdrückung der unmittelbaren asthmatischen Reaktionen (sGaw) ([3]; Ebselen 5 mg/kg i.p. 30 min before antigen challenge, compared with control group (DMSO)) | Unterdrückung der späten asthmatischen Reaktionen (sGaw) ([3]; Ebselen 5 mg/kg i.p. 30 min before antigen challenge, compared with control group (late reactions at 180 to 420 min in controls)) | Bereiche der Unterdrückung der unmittelbaren asthmatischen Reaktionen [3] | Lipoxygenase inhibierende Wirkung (Lipoxygenase)
1 | O=c1c2ccccc2[se]n1-c1ccccc1 [Ebselen, 2-Phenyl-1,2-Benzoisoselenazole-3(2H)-one] | 740 | > 6810 | 580 | > 6810 | wirkungsvoller unterdrückt | wirkungsvoller unterdrückt; also recorded: erheblich und vollständig unterdrückt | überwiegend gleich | deutliche Lipoxygenase inhibierende Wirkung
2 | C[C@@H]1C[C@H]2[C@@H]3CCC4=CC(=O)C=C[C@]4(C)[C@@]3(F)[C@@H](O)C[C@]2(C)[C@@]1(O)C(=O)CO [Dexamethason, reference compound] |  |  |  |  |  |  | überwiegend gleich | 

From patent publication EP0876144B1, “THERAPEUTIC ANTI-ASTHMA AGENTS CONTAINING EBSELEN” (A. Nattermann & Cie. GmbH, priority 1996, dated 1997)
